Test results from the OligoGym collection.
HELM strings list units from the 5' end as sugar, base in round brackets, then linkage (d deoxyribose, r ribose, m 2'-O-methyl, p phosphodiester). Strings are as the collection lists them; they lack the last nucleoside at the 3' end of the tested compound. [moe] = 2'-O-(2-methoxyethyl) (MOE); [sp] = phosphorothioate linkage; [m5C] = 5-methylcytosine

Target: HTT
Assay: mouse, dose not given
Details: ASO

Q: With “RNA1{[moe](T)[sp].[moe]([m5C])p.[moe](A)p.[moe]([m5C])p.[moe](A)[sp].d(G)[sp].d([m5C])[sp].d(T)[sp].d(T)[sp].d(T)[sp].d(T)[sp].d(A)[sp].d(T)[sp].[moe](T)p.[moe](T)p.[moe]([m5C])[sp].[moe]([m5C])}$$$$ (last 3' nucleoside missing)” as the substance, how does the 3 h FOB score read?
A: 0 score 0-7

Q: How did the 3 h FOB score turn out when “RNA1{[moe](G)[sp].[moe](T)p.[moe](G)p.[moe]([m5C])p.[moe](A)[sp].d(T)[sp].d(T)[sp].d(A)[sp].d([m5C])[sp].d(T)[sp].d(T)[sp].d(T)[sp].d(T)[sp].d(T)[sp].d(A)[sp].[moe]([m5C])p.[moe](A)p.[moe](A)[sp].[moe](T)}$$$$ (last 3' nucleoside missing)” was run?
A: 1.25 score 0-7

Q: How did the 3 h FOB score turn out when “RNA1{[moe](G)[sp].[moe]([m5C])p.[moe](A)[sp].[moe](T)[sp].[moe](T)[sp].d(A)[sp].d([m5C])[sp].d(T)[sp].d(T)[sp].d(T)[sp].d(T)[sp].d(T)[sp].d(A)[sp].d([m5C])[sp].d(A)[sp].[moe](A)[sp].[moe](T)p.[moe](G)[sp].[moe](G)}$$$$ (last 3' nucleoside missing)” was run?
A: 5.25 score 0-7

Q: Which 3 h FOB score does the source give for “RNA1{[moe](G)[sp].[moe](T)p.[moe]([m5C])p.[moe](A)p.[moe]([m5C])[sp].d(A)[sp].d(G)[sp].d([m5C])[sp].d(T)[sp].d(T)[sp].d(T)[sp].d(T)[sp].d(A)[sp].d(T)[sp].d(T)[sp].[moe](T)p.[moe]([m5C])p.[moe]([m5C])[sp].[moe](A)}$$$$ (last 3' nucleoside missing)” here?
A: 1 score 0-7

Q: With “RNA1{[moe]([m5C])[sp].[moe](T)p.[moe](T)p.[moe](G)p.[moe](G)p.[moe](T)p.d(T)[sp].d(A)[sp].d(G)[sp].d(T)[sp].d(T)[sp].d(T)[sp].d(T)[sp].d([m5C])[sp].d([m5C])[sp].d(T)[sp].[moe](T)p.[moe](T)[sp].[moe](T)}$$$$ (last 3' nucleoside missing)” as the substance, how does the 3 h FOB score read?
A: 4.25 score 0-7

Q: For “RNA1{[moe](A)[sp].[moe]([m5C])p.[moe](A)p.[moe](G)p.[moe]([m5C])p.[moe](T)p.d(T)[sp].d(T)[sp].d(T)[sp].d(A)[sp].d(T)[sp].d(T)[sp].d(T)[sp].d([m5C])[sp].d([m5C])[sp].d(A)[sp].[moe](T)p.[moe](A)[sp].[moe]([m5C])}$$$$ (last 3' nucleoside missing)”, which 3 h FOB score is on record?
A: 0 score 0-7

Q: Which 3 h FOB score does the source give for “RNA1{[moe](G)[sp].[moe](T)p.[moe](G)p.[moe]([m5C])p.[moe](A)p.[moe](T)p.d(T)[sp].d(A)[sp].d([m5C])[sp].d(T)[sp].d(T)[sp].d(T)[sp].d(T)[sp].d(T)[sp].d(A)[sp].d([m5C])[sp].[moe](A)p.[moe](A)[sp].[moe](T)}$$$$ (last 3' nucleoside missing)” here?
A: 3 score 0-7

Q: With “RNA1{[moe]([m5C])[sp].[moe](A)p.[moe]([m5C])p.[moe](T)p.[moe]([m5C])[sp].d(A)[sp].d(T)[sp].d(T)[sp].d(T)[sp].d([m5C])[sp].d([m5C])[sp].d(A)[sp].d([m5C])[sp].d([m5C])[sp].d(T)[sp].[moe](T)p.[moe]([m5C])p.[moe](A)[sp].[moe](G)}$$$$ (last 3' nucleoside missing)” as the substance, how does the 3 h FOB score read?
A: 0 score 0-7

Q: How did the 3 h FOB score turn out when “RNA1{[moe](G)[sp].[moe]([m5C])p.[moe](T)p.[moe](T)p.[moe](T)p.[moe](G)p.d(A)[sp].d(T)[sp].d(T)[sp].d(T)[sp].d(T)[sp].d(T)[sp].d(A)[sp].d([m5C])[sp].d([m5C])[sp].d(A)[sp].[moe](G)p.[moe](T)[sp].[moe](T)}$$$$ (last 3' nucleoside missing)” was run?
A: 0.5 score 0-7

Q: “RNA1{[moe](G)[sp].[moe]([m5C])p.[moe](T)p.[moe](T)p.[moe](T)[sp].d(T)[sp].d(G)[sp].d(A)[sp].d(A)[sp].d(A)[sp].d(T)[sp].d(T)[sp].d([m5C])[sp].d(T)[sp].d([m5C])[sp].[moe]([m5C])p.[moe](A)p.[moe](T)[sp].[moe]([m5C])}$$$$ (last 3' nucleoside missing)” was tested. Which 3 h FOB score did it give?
A: 6.75 score 0-7

Q: For “RNA1{[moe](A)[sp].[moe]([m5C])p.[moe](A)p.[moe](G)p.[moe]([m5C])[sp].d(T)[sp].d(T)[sp].d(T)[sp].d(T)[sp].d(A)[sp].d(T)[sp].d(T)[sp].d(T)[sp].d([m5C])[sp].d([m5C])[sp].[moe](A)p.[moe](T)p.[moe](A)[sp].[moe]([m5C])}$$$$ (last 3' nucleoside missing)”, which 3 h FOB score is on record?
A: 1 score 0-7

Q: “RNA1{[moe](G)[sp].[moe]([m5C])p.[moe](A)p.[moe](T)p.[moe](T)[sp].d(A)[sp].d([m5C])[sp].d(T)[sp].d(T)[sp].d(T)[sp].d(T)[sp].d(T)[sp].d(A)[sp].d([m5C])[sp].d(A)[sp].[moe](A)p.[moe](T)p.[moe](G)[sp].[moe](G)}$$$$ (last 3' nucleoside missing)” was tested. Which 3 h FOB score did it give?
A: 1 score 0-7

Q: For “RNA1{[moe](G)[sp].[moe](G)p.[moe](T)p.[moe](T)p.[moe](A)[sp].d(G)[sp].d(T)[sp].d(T)[sp].d(T)[sp].d(T)[sp].d([m5C])[sp].d([m5C])[sp].d(T)[sp].[moe](T)p.[moe](T)p.[moe](T)[sp].[moe](A)}$$$$ (last 3' nucleoside missing)”, which 3 h FOB score is on record?
A: 1 score 0-7

Q: How did the 3 h FOB score turn out when “RNA1{[moe]([m5C])[sp].[moe](A)p.[moe]([m5C])p.[moe](A)p.[moe](G)[sp].d([m5C])[sp].d(T)[sp].d(T)[sp].d(T)[sp].d(T)[sp].d(A)[sp].d(T)[sp].d(T)[sp].d(T)[sp].d([m5C])[sp].[moe]([m5C])p.[moe](A)p.[moe](T)[sp].[moe](A)}$$$$ (last 3' nucleoside missing)” was run?
A: 0 score 0-7

Q: For “RNA1{[moe](G)[sp].[moe]([m5C])p.[moe](A)p.[moe](T)p.[moe]([m5C])[sp].d(T)[sp].d(T)[sp].d(G)[sp].d(T)[sp].d(T)[sp].d(T)[sp].d(T)[sp].d(A)[sp].d([m5C])[sp].d([m5C])[sp].[moe](A)p.[moe]([m5C])p.[moe]([m5C])[sp].[moe]([m5C])}$$$$ (last 3' nucleoside missing)”, which 3 h FOB score is on record?
A: 1.5 score 0-7

Q: How did the 3 h FOB score turn out when “RNA1{[moe](T)[sp].[moe]([m5C])p.[moe]([m5C])p.[moe](T)p.[moe]([m5C])[sp].d(T)[sp].d(T)[sp].d(T)[sp].d([m5C])[sp].d(A)[sp].d([m5C])[sp].d(T)[sp].d(G)[sp].d([m5C])[sp].d(T)[sp].[moe](T)p.[moe]([m5C])p.[moe](T)[sp].[moe](A)}$$$$ (last 3' nucleoside missing)” was run?
A: 3 score 0-7

Q: How did the 3 h FOB score turn out when “RNA1{[moe](G)[sp].[moe]([m5C])p.[moe]([m5C])p.[moe](A)p.[moe](T)[sp].d(A)[sp].d(T)[sp].d(T)[sp].d(T)[sp].d(T)[sp].d([m5C])[sp].d(T)[sp].d([m5C])[sp].d(A)[sp].d(A)[sp].[moe]([m5C])p.[moe](T)p.[moe](T)[sp].[moe](T)}$$$$ (last 3' nucleoside missing)” was run?
A: 0 score 0-7

Q: “RNA1{[moe](T)[sp].[moe](T)p.[moe](G)p.[moe](G)p.[moe](T)p.[moe](T)p.d(A)[sp].d(G)[sp].d(T)[sp].d(T)[sp].d(T)[sp].d(T)[sp].d([m5C])[sp].d([m5C])[sp].d(T)[sp].d(T)[sp].[moe](T)p.[moe](T)[sp].[moe](A)}$$$$ (last 3' nucleoside missing)” was tested. Which 3 h FOB score did it give?
A: 0 score 0-7

Q: How did the 3 h FOB score turn out when “RNA1{[moe](T)[sp].[moe](G)p.[moe]([m5C])p.[moe](T)p.[moe](G)[sp].d([m5C])[sp].d(T)[sp].d([m5C])[sp].d(A)[sp].d([m5C])[sp].d(T)[sp].d([m5C])[sp].d(A)[sp].d(T)[sp].d(T)[sp].[moe](T)p.[moe]([m5C])p.[moe]([m5C])[sp].[moe](A)}$$$$ (last 3' nucleoside missing)” was run?
A: 0 score 0-7

Q: “RNA1{[moe](T)[sp].[moe](G)p.[moe]([m5C])p.[moe](A)p.[moe](T)p.[moe](T)p.d(A)[sp].d([m5C])[sp].d(T)[sp].d(T)[sp].d(T)[sp].d(T)[sp].d(T)[sp].d(A)[sp].d([m5C])[sp].d(A)[sp].[moe](A)p.[moe](T)[sp].[moe](G)}$$$$ (last 3' nucleoside missing)” was tested. Which 3 h FOB score did it give?
A: 6.5 score 0-7

Q: For “RNA1{[moe]([m5C])[sp].[moe](T)p.[moe](A)p.[moe](G)p.[moe](A)[sp].d(G)[sp].d(G)[sp].d(T)[sp].d([m5C])[sp].d(A)[sp].d(T)[sp].d([m5C])[sp].d(T)[sp].d(T)[sp].d([m5C])[sp].[moe](G)p.[moe](G)p.[moe](T)[sp].[moe]([m5C])}$$$$ (last 3' nucleoside missing)”, which 3 h FOB score is on record?
A: 2 score 0-7

Q: How did the 3 h FOB score turn out when “RNA1{[moe](G)[sp].[moe](T)p.[moe]([m5C])[sp].[moe](A)[sp].[moe]([m5C])[sp].d(A)[sp].d(G)[sp].d([m5C])[sp].d(T)[sp].d(T)[sp].d(T)[sp].d(T)[sp].d(A)[sp].d(T)[sp].d(T)[sp].[moe](T)[sp].[moe]([m5C])p.[moe]([m5C])[sp].[moe](A)}$$$$ (last 3' nucleoside missing)” was run?
A: 1.25 score 0-7

Q: Which 3 h FOB score does the source give for “RNA1{[moe](A)[sp].[moe](A)p.[moe]([m5C])p.[moe](A)p.[moe](A)[sp].d(A)[sp].d(T)[sp].d(A)[sp].d(T)[sp].d(T)[sp].d(T)[sp].d(T)[sp].d([m5C])[sp].d(A)[sp].d(A)[sp].[moe]([m5C])p.[moe](T)p.[moe](G)[sp].[moe](G)}$$$$ (last 3' nucleoside missing)” here?
A: 4.5 score 0-7

Q: For “RNA1{[moe](G)[sp].[moe](G)p.[moe](T)p.[moe]([m5C])p.[moe](A)[sp].d([m5C])[sp].d(A)[sp].d(G)[sp].d([m5C])[sp].d(T)[sp].d(T)[sp].d(T)[sp].d(T)[sp].d(A)[sp].d(T)[sp].[moe](T)p.[moe](T)p.[moe]([m5C])[sp].[moe]([m5C])}$$$$ (last 3' nucleoside missing)”, which 3 h FOB score is on record?
A: 0 score 0-7

Q: How did the 3 h FOB score turn out when “RNA1{[moe](A)[sp].[moe](T)p.[moe]([m5C])p.[moe]([m5C])p.[moe](A)[sp].d(G)[sp].d(A)[sp].d(T)[sp].d(T)[sp].d(A)[sp].d(T)[sp].d(A)[sp].d([m5C])[sp].d(A)[sp].d(T)[sp].[moe]([m5C])p.[moe](T)p.[moe]([m5C])[sp].[moe]([m5C])}$$$$ (last 3' nucleoside missing)” was run?
A: 0 score 0-7

Q: With “RNA1{[moe](A)[sp].[moe]([m5C])p.[moe](T)p.[moe]([m5C])p.[moe](A)[sp].d(T)[sp].d(T)[sp].d(T)[sp].d([m5C])[sp].d([m5C])[sp].d(A)[sp].d([m5C])[sp].d([m5C])[sp].d(T)[sp].d(T)[sp].[moe]([m5C])p.[moe](A)p.[moe](G)[sp].[moe]([m5C])}$$$$ (last 3' nucleoside missing)” as the substance, how does the 3 h FOB score read?
A: 0 score 0-7
